The values that follow come from paper PMC8795738, “The Tarantula Venom Peptide Eo1a Binds to the Domain II S3-S4 Extracellular Loop of Voltage-Gated Sodium Channel NaV1.8 to Enhance Activation” (Frontiers in Pharmacology, 2022).

Assay [1] has as its system TRPV1. Briefly: TRPV1 calcium assay (FLIPR). Particulars: Eo1a 10 μM, HEK293, rat TRPV1, Calcium 4 dye, 300 s, compared with capsaicin 300 nM, n = 3 wells. The assay is classed as cell-based. Here is the method: (§1) Human Embryonic Kidney (HEK) 293 cells stably expressing human NaV1.1 to NaV1.7/β1 (SB Drug Discovery, Glasgow, United Kingdom), Chinese Hamster Ovary (CHO) cells stably expressing human NaV1.8/β3 in a tetracycline-inducible system (ChanTest, Cleveland, OH, United States), and HEK293 cells stably expressing rat transient receptor potential vanilloid 1 (TRPV1) were cultured as previously described ([Yin et al., 2020]). Human KV2.1 and NaV1.7 mutants were transiently transfected into HEK293 cells stably expressing β1/β2 using Lipofectamine 2000 (Thermo Fisher Scientific, Scoresby, VIC, Australia) and used for patch-clamp experiments 48 h after transfection. Cells were grown in an incubator at 37°C with 5% CO2 and passaged every 3–4 d (at 70–80% confluency) using TrypLE Express (Thermo Fisher Scientific).
The activity of Eo1a at rTRPV1 was assessed using the assay described previously ([Yin et al., 2020]). Briefly, the TRPV1 activator capsaicin (300 nM) and Eo1a (10 μM) were added to cells loaded with Calcium 4 no-wash dye (Molecular Devices) and changes in fluorescence were assessed using a FLIPR^TETRA (excitation 470–495 nm, emission 515–575 nm) every 1 s for 300 s. Fluorescence responses were normalized to baseline fluorescence (ΔF/F) and plotted versus time using ScreenWorks 3.2.0.14.

For assay [2], the system named is NaV1.7 with DIV S3-S4 loop of NaV1.8. Put plainly: Voltage-dependence of activation, NaV1.7/NaV1.8 chimera DIV S3-S4. The assay is classed as cell-based, human. Particulars: Eo1a 10 μM; NaV1.7 with NaV1.8 DIV S3-S4; HEK293 β1/β2, transient; mean ± SEM, n = 3–6 cells. As to the method:
as §1
(§2) Wild-type (WT) hNaV1.7 cDNA (NM_002,977, a gift from Dr James Cox, University College London) was subjected to in vitro site-directed mutagenesis using the QuikChange™ XL mutagenesis kit (Agilent Technologies) following the manufacturer’s instructions. NaV1.7 mutants were generated by substituting the domain II (DII) S1-S2 loop, the DII S3-S4 loop, the domain IV (DIV) S1-S2 loop and the DIV S3-S4 loop in NaV1.7 with the corresponding regions of NaV1.8. The mutations were verified by sequencing at the Brisbane node of the Australian Genome Research Facility. […]

The subject of assay [3] is WT mice. Briefly: Spontaneous pain after intraplantar injection, WT littermate mice. The assay is classed as in vivo, mouse. Particulars: Eo1a intraplantar, mean ± SEM, n = 3–4 mice. An excerpt: (§3) Adult male C57BL/6J mice aged 4–8 weeks were sourced from the Animal Resource Centre (Canning Vale, Western Australia). Adult male NaV1.8 knockouts ([Nassar et al., 2004]) (aged 8–11 weeks) and wild-type littermates were housed and tested at University College London. Animals were housed in groups of three or four per cage under 12-h light-dark cycles and were provided with standard rodent chow and water ad libitum. Ethical approval for experiments involving animals was obtained from The University of Queensland animal ethics committee (TRI/IMB/093/17, IMB/PACE/421/18) and the United Kingdom Home Office (project licence PPL 70/7382). All experiments were conducted in accordance with the International Association for the Study of Pain Guidelines for the Use of Animals in Research and the Australian Code of Practice for the Care and Use of Animals for Scientific Purposes, 8th edition (2013).
(§4) Eo1a (1 μM or 10 μM) was diluted in saline/0.1% BSA and administered by intraplantar injection to the left hind paw of mice in a volume of 40 μl under isoflurane (3%) anaesthesia, and spontaneous pain behaviours (licks, bites, shakes, and lifts of the hind paw) were counted by a blinded investigator for up to 40 min after the injection.

Assay [4] deals with NaV1.7 with DIV S1-S2 loop of NaV1.8. Briefly: Voltage-dependence of activation, NaV1.7/NaV1.8 chimera DIV S1-S2. Particulars: Eo1a 10 μM; NaV1.7 with NaV1.8 DIV S1-S2; HEK293 β1/β2, transient; mean ± SEM, n = 3–6 cells. The assay is classed as cell-based, human. Here is the method: as §1, §2
Assay [5] relates to NaV1.7 with DII S1-S2 loop of NaV1.8. Briefly: Voltage-dependence of activation, NaV1.7/NaV1.8 chimera DII S1-S2. In kind it is cell-based, human. Particulars: Eo1a 10 μM; NaV1.7 with NaV1.8 DII S1-S2; HEK293 β1/β2, transient; mean ± SEM, n = 3–6 cells. As to the method:
as §1, §2

Assay [6] relates to NaV1.8 KO mice. Briefly: Spontaneous pain after intraplantar injection, NaV1.8 knockout mice. The assay is classed as in vivo, mouse. Particulars: Eo1a intraplantar, significantly reduced vs WT, *p < 0.05 unpaired t-test, mean ± SEM, n = 3–4 mice.
From the text: as §3, §4

Where a SMILES comes first, the peptide text is derived from it. Bridges are numbered along the chain shown (N, C = ends).

Regarding `CC[C@H](C)[C@@H]1NC(=O)[C@H](CCCNC(=N)N)NC(=O)[C@@H]2CSSC[C@@H]3NC(=O)CNC(=O)CNC(=O)[C@H](CC(C)C)NC(=O)[C@H](Cc4ccccc4)NC(=O)[C@H](Cc4c[nH]c5ccccc45)NC(=O)[C@H](CCCNC(=N)N)NC(=O)[C@@H](NC(=O)[C@@H](N)CC(=O)O)CSSC[C@H](NC(=O)[C@H](CSSC[C@@H](C(=O)N[C@@H](C)C(=O)N[C@@H](Cc4c[nH]c5ccccc45)C(=O)N[C@@H](CC(=O)O)C(=O)NCC(=O)N[C@H](C(=O)N[C@@H](Cc4ccccc4)C(N)=O)[C@@H](C)O)NC(=O)[C@H](Cc4ccc(O)cc4)NC(=O)[C@H](CCCCN)NC(=O)[C@H]([C@@H](C)CC)NC(=O)[C@H](Cc4ccc(O)cc4)NC(=O)CNC(=O)[C@H](CC(=O)O)NC1=O)NC(=O)[C@H](CC(=O)O)NC(=O)[C@H](CO)NC(=O)[C@H](CC(=O)O)NC(=O)[C@H](CCCCN)NC(=O)[C@H](CO)NC3=O)C(=O)N[C@@H](CCCCN)C(=O)N[C@@H](Cc1c[nH]cn1)C(=O)N[C@@H](CC(C)C)C(=O)N[C@@H](C)C(=O)N2` [Eo1a] (H-DCRWFLGGCSKDSDCCKHLACRIDGYIKYCAWDGTF-NH2; disulfide 2-16, 9-21, 15-30 (inferred); N-terminus assumed), the “activity at TRPV1 (Ca2+ dye fluorescence over baseline)” value in assay [1] is recorded as “minimal activity”. For the same compound, the ΔV1/2 activation was −6.7 ± 0.5 mV in assay [2], −4.8 ± 0.6 mV in assay [4] and −3.7 ± 0.5 mV in assay [5]. Further, the “spontaneous pain (flinches)” value came to 392 ± 45 Flinches/15 min in assay [3] and 216 ± 26 Flinches/15 min in assay [6].
